What was measured:
[1] = system: influenza A virus minigenome (PB2, PB1, PA, NP; luciferase reporter) in 293T cells, RNP_Hubei; test: microbe, parasite or virus in culture; assay type: cell-based; details: HEK-293T, 48 h
[2] = system: influenza A virus minigenome (PB2, PB1, PA, NP; luciferase reporter) in 293T cells, RNP_Alaska; test: microbe, parasite or virus in culture; assay type: cell-based; details: HEK-293T, 48 h

SMILES	EC50 [1] [nM]	EC50 [2] [nM]
CC(C)OC(=O)OCOc1c2n(ncc1=O)[C@@H]([C@H](c1ccc(F)cc1)c1cccc(F)c1F)[C@H]1CCCN1C2=O [Example 89, (((9aR,10S)-10-((R)-(2,3-difluorophenyl)(4-fluorophenyl)methyl)-3,5-dioxo-3,5,8,9,9a,10-hexahydro-7H-pyrrolo[1′,2′:4,5]pyrazino[1,2-b]pyridazin-4-yl)oxy)methyl isopropyl carbonate]	< 100	< 100
CC(C)(C)C(=O)Oc1c2n(ncc1=O)[C@@H]([C@H](c1cccc(F)c1)c1cccc(F)c1F)[C@H]1CCCN1C2=O [Example 111, (9aR,10S)-10-((R)-(2,3-difluorophenyl)(3-fluorophenyl)methyl)-3,5-dioxo-3,5,8,9,9a,10-hexahydro-7H-pyrrolo[1′,2′:4,5]pyrazino[1,2-b]pyridazin-4-yl pivalate]	< 100	< 100
COC(C)(C)C(=O)OCOc1c2n(ncc1=O)[C@@H]([C@H](c1ccccc1)c1cccc(F)c1F)[C@H]1CCCN1C2=O [Example 41, (((9aR,10S)-10-((R)-(2,3-difluorophenyl)(phenyl)methyl)-3,5-dioxo-3,5,8,9,9a,10-hexahydro-7H-pyrrolo[1′,2′:4,5]pyrazino[1,2-b]pyridazin-4-yl)oxy)methyl 2-methoxy-2-methylpropanoate]	< 100	< 100
CC(C)(C)C(=O)OCOc1c2n(ncc1=O)[C@@H]([C@H](c1cccc(F)c1)c1cccc(F)c1F)[C@H]1CCCN1C2=O [Example 109, (((9aR,10S)-10-((R)-(2,3-difluorophenyl)(3-fluorophenyl)methyl)-3,5-dioxo-3,5,8,9,9a,10-hexahydro-7H-pyrrolo[1′,2′:4,5]pyrazino[1,2-b]pyridazin-4-yl)oxy)methyl pivalate]	< 100	< 100
CCN(C)C(=O)Oc1c2n(ncc1=O)[C@@H]([C@H](c1ccccc1)c1cccc(F)c1F)[C@H]1CCCN1C2=O [Example 47, (9aR,10S)-10-((R)-(2,3-difluorophenyl)(phenyl)methyl)-3,5-dioxo-3,5,8,9,9a,10-hexahydro-7H-pyrrolo[1′,2′:4,5]pyrazino[1,2-b]pyridazin-4-yl ethyl(methyl)carbamate]	≥ 1000	≥ 1000
CC(C)OC(=O)Oc1c2n(ncc1=O)[C@@H]([C@H](c1cccc(F)c1)c1cccc(F)c1F)[C@H]1CCCN1C2=O [Example 103, (9aR,10S)-10-((R)-(2,3-difluorophenyl)(3-fluorophenyl)methyl)-3,5-dioxo-3,5,8,9,9a,10-hexahydro-7H-pyrrolo[1′,2′:4,5]pyrazino[1,2-b]pyridazin-4-yl isopropyl carbonate]	< 100	< 100
COCCOC(=O)OCOc1c2n(ncc1=O)[C@@H]([C@H](c1ccccc1)c1cccc(F)c1F)[C@H]1CCCN1C2=O [Example 46, (((9aR,10S)-10-((R)-(2,3-difluorophenyl)(phenyl)methyl)-3,5-dioxo-3,5,8,9,9a,10-hexahydro-7H-pyrrolo[1′,2′:4,5]pyrazino[1,2-b]pyridazin-4-yl)oxy)methyl (2-methoxyethyl) carbonate]	≥ 1000	≥ 1000
O=C(Oc1c2n(ncc1=O)[C@@H]([C@H](c1ccccc1)c1cccc(F)c1F)[C@H]1CCCN1C2=O)N1CCC(N2CCCCC2)CC1 [Example 65, (9aR,10S)-10-((R)-(2,3-difluorophenyl)(phenyl)methyl)-3,5-dioxo-3,5,8,9,9a,10-hexahydro-7H-pyrrolo[1′,2′:4,5]pyrazino[1,2-b]pyridazin-4-yl [1,4′-bipiperidine]-1′-carboxylate]	≥ 1000	≥ 1000
O=C(Oc1c2n(ncc1=O)[C@@H]([C@H](c1ccccc1)c1cccc(F)c1F)[C@H]1CCCN1C2=O)N1CCOCC1 [Example 66, (9aR,10S)-10-((R)-(2,3-difluorophenyl)(phenyl)methyl)-3,5-dioxo-3,5,8,9,9a,10-hexahydro-7H-pyrrolo[1′,2′:4,5]pyrazino[1,2-b]pyridazin-4-yl morpholine-4-carboxylate]	≥ 1000	≥ 1000
CC(C)(C)OC(=O)OCOc1c2n(ncc1=O)[C@@H]([C@H](c1ccc(F)cc1)c1cccc(F)c1F)[C@H]1CCCN1C2=O [Example 91, tert-butyl ((((9aR,10S)-10-((R)-(2,3-difluorophenyl)(4-fluorophenyl)methyl)-3,5-dioxo-3,5,8,9,9a,10-hexahydro-7H-pyrrolo[1′,2′:4,5]pyrazino[1,2-b]pyridazin-4-yl)oxy)methyl) carbonate]	< 100	< 100
CN(C)C(=O)OCOc1c2n(ncc1=O)[C@@H]([C@H](c1cccc(F)c1)c1cccc(F)c1F)[C@H]1CCCN1C2=O [Example 101, (((9aR,10S)-10-((R)-(2,3-difluorophenyl)(3-fluorophenyl)methyl)-3,5-dioxo-3,5,8,9,9a,10-hexahydro-7H-pyrrolo[1′,2′:4,5]pyrazino[1,2-b]pyridazin-4-yl)oxy)methyl dimethylcarbamate]	100 to 1000	≥ 1000
COC(C)(C)C(=O)Oc1c2n(ncc1=O)[C@@H]([C@H](c1ccc(F)cc1)c1cccc(F)c1F)[C@H]1CCCN1C2=O [Example 90, (9aR,10S)-10-((R)-(2,3-difluorophenyl)(4-fluorophenyl)methyl)-3,5-dioxo-3,5,8,9,9a,10-hexahydro-7H-pyrrolo[1′,2′:4,5]pyrazino[1,2-b]pyridazin-4-yl 2-methoxy-2-methylpropanoate]	< 100	< 100
CN(C)C(=O)Oc1c2n(ncc1=O)[C@@H]([C@H](c1ccc(F)cc1)c1cccc(F)c1F)[C@H]1CCCN1C2=O [Example 87, (9aR,10S)-10-((R)-(2,3-difluorophenyl)(4-fluorophenyl)methyl)-3,5-dioxo-3,5,8,9,9a,10-hexahydro-7H-pyrrolo[1′,2′:4,5]pyrazino[1,2-b]pyridazin-4-yl dimethylcarbamate]	≥ 1000	≥ 1000
COCCC(=O)OCOc1c2n(ncc1=O)[C@@H]([C@H](c1ccccc1)c1cccc(F)c1F)[C@H]1CCCN1C2=O [Example 64, (((9aR,10S)-10-((R)-(2,3-difluorophenyl)(phenyl)methyl)-3,5-dioxo-3,5,8,9,9a,10-hexahydro-7H-pyrrolo[1′,2′:4,5]pyrazino[1,2-b]pyridazin-4-yl)oxy)methyl 3-methoxypropanoate]	≥ 1000	≥ 1000
COc1c2n(ncc1=O)[C@@H]([C@H](c1ccc(F)cc1)c1cccc(F)c1F)[C@H]1CCCN1C2=O [Example 81, (9aR,10S)-10-((R)-(2,3-difluorophenyl)(4-fluorophenyl)methyl)-4-methoxy-8,9,9a,10-tetrahydro-7H-pyrrolo[1′,2′:4,5]pyrazino[1,2-b]pyridazine-3,5-dione]	≥ 1000	≥ 1000
COC(=O)Oc1c2n(ncc1=O)[C@@H]([C@H](c1ccccc1)c1cccc(F)c1F)[C@H]1CCCN1C2=O [Example 54, (9aR,10S)-10-((R)-(2,3-difluorophenyl)(phenyl)methyl)-3,5-dioxo-3,5,8,9,9a,10-hexahydro-7H-pyrrolo[1′,2′:4,5]pyrazino[1,2-b]pyridazin-4-yl methyl carbonate]	< 100	< 100

Reference: US12071441B2, “10-(di(phenyl)methyl)-4-hydroxy-8,9,9A,10-tetrahydro-7H-pyrrolo[1′,2′:4,5]pyrazino[1,2-b]pyridazine-3,5-dione derivatives and related compounds as inhibitors of the orthomyxovirus replication for treating influenza” (Novartis AG, priority 2018, dated 2024)
